Reference: patent US12404241B2 (Celgene Corporation, priority 2018, dated 2025)

Biological target: T1, AR (Homo sapiens, UniProt P10275)
T1 construct: endogenous in cells; host or cells: VCaP cells
T1 sequence (P10275 1-920): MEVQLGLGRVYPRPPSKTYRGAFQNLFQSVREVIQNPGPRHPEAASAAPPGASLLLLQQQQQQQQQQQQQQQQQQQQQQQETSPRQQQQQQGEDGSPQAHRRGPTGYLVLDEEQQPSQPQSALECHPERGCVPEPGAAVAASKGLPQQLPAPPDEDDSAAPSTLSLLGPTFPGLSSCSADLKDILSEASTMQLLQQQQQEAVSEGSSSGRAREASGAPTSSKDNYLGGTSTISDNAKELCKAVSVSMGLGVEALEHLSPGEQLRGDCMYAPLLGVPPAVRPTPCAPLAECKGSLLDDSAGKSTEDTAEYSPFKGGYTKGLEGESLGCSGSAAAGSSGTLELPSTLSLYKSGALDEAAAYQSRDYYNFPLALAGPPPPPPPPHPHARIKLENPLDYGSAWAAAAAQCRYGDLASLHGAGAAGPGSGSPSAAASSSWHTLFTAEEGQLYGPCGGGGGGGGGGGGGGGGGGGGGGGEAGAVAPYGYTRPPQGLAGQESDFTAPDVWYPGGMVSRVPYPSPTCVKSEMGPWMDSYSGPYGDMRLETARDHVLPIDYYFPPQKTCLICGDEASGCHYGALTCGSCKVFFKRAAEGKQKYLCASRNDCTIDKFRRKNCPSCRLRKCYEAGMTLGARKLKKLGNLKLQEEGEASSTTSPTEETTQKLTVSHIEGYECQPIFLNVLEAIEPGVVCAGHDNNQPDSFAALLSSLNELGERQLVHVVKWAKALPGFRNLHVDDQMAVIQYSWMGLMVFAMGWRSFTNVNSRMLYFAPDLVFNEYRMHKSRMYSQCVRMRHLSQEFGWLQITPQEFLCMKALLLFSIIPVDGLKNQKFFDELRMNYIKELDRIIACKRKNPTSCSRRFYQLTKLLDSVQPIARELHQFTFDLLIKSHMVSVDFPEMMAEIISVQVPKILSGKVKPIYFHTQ
Test: VCAP AR Degradation Assay
Format: cell-based
Settings: for Y (AR degradation efficiency, % of DMSO control): class symbols *; for DC50: class symbols A-C, read-out: DC50
Summary of the method: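 Compounds were plated as 10-point 1:3 series reaching 5 μM final, then VCaP cells were seeded onto them and incubated 24 h at 37 °C. Cells were lysed cold, and total AR was measured by sandwich ELISA relative to 0.1% DMSO wells.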

Row | SMILES | Y (AR degradation efficiency, % of DMSO control) | DC50 [nM]
1 | CCc1cc(N2C(=S)N(c3ccc(C#N)c(C(F)(F)F)c3)C(=O)C2(C)C)ccc1OCCN1CCN(CC(=O)Nc2cccc(NC3CCC(=O)NC3=O)c2)[C@H](C(F)(F)F)C1 (stereo partly drawn) [Example 246, 2-((S)-4-(2-(4-(3-(4-cyano-3-(trifluoromethyl)phenyl)-5,5-dimethyl-4-oxo-2-thioxoimidazolidin-1-yl)-2-ethylphenoxy)ethyl)-2-(trifluoromethyl)piperazin-1-yl)-N-(3-(2,6-dioxopiperidin-3-ylamino)phenyl)acetamide] | * (0<Y<=25%) | < 100
2 | CCc1cc(N2C(=S)N(c3ccc(C#N)c(C(F)(F)F)c3)C(=O)C2(C)C)ccc1OCCN1CCN(CC(=O)Nc2cc(Cl)cc(NC3CCC(=O)NC3=O)c2)C2(CC2)C1 (centres unmarked) [Example 101, N-(3-chloro-5-(2,6-dioxopiperidin-3-ylamino)phenyl)-2-(7-(2-(4-(3-(4-cyano-3-(trifluoromethyl)phenyl)-5,5-dimethyl-4-oxo-2-thioxoimidazolidin-1-yl)-2-ethylphenoxy)ethyl)-4,7-diazaspiro[2.5]octan-4-yl)acetamide] | * (0<Y<=25%) | < 100
3 | C[C@@H]1CN(CCOc2ccc(N3C(=S)N(c4ccc(C#N)c(C(F)(F)F)c4)C(=O)C3(C)C)cc2C(C)(F)F)C[C@H](C)N1CC(=O)Nc1cccc(NC2CCC(=O)NC2=O)c1 (stereo partly drawn) [Example 252, 2-((2S,6R)-4-(2-(4-(3-(4-cyano-3-(trifluoromethyl)phenyl)-5,5-dimethyl-4-oxo-2-thioxoimidazolidin-1-yl)-2-(1,1-difluoroethyl)phenoxy)ethyl)-2,6-dimethylpiperazin-1-yl)-N-(3-(2,6-dioxopiperidin-3-ylamino)phenyl)acetamide] | * (0<Y<=25%) | < 100
4 | CC(C)c1cc(N2C(=S)N(c3ccc(C#N)c(C(F)(F)F)c3)C(=O)C2(C)C)ccc1OCCN1C[C@@H](C)N(CC(=O)Nc2cc(C#N)cc(NC3CCC(=O)NC3=O)c2)[C@@H](C)C1 (stereo partly drawn) [Example 194, 2-((2S,6R)-4-(2-(4-(3-(4-cyano-3-(trifluoromethyl)phenyl)-5,5-dimethyl-4-oxo-2-thioxoimidazolidin-1-yl)-2-isopropylphenoxy)ethyl)-2,6-dimethylpiperazin-1-yl)-N-(3-cyano-5-(2,6-dioxopiperidin-3-ylamino)phenyl)acetamide] | * (0<Y<=25%) | < 100
5 | CCc1cc(N2C(=S)N(c3cnc(C#N)c(C(F)(F)F)c3)C(=O)C2(C)C)ccc1OCCN1CCN([C@H](C)C(=O)Nc2cc(Cl)cc(NC3CCC(=O)NC3=O)c2)CC1 (single isomer, unassigned) [Example 113] | * (0<Y<=25%) | < 100
6 | CC(C)c1cc(N2C(=S)N(c3ccc(C#N)c(C(F)(F)F)c3)C(=O)C2(C)C)cnc1OCCN1C[C@@H](C)N(CC(=O)Nc2cc(C#N)cc(NC3CCC(=O)NC3=O)c2)C[C@H]1C (stereo partly drawn) [Example 232, 2-((2R,5R)-4-(2-(5-(3-(4-cyano-3-(trifluoromethyl)phenyl)-5,5-dimethyl-4-oxo-2-thioxoimidazolidin-1-yl)-3-isopropylpyridin-2-yloxy)ethyl)-2,5-dimethylpiperazin-1-yl)-N-(3-cyano-5-(2,6-dioxopiperidin-3-ylamino)phenyl)acetamide] | * (0<Y<=25%) | 100 to 500
7 | CC1(C)C(=O)N(c2cnc(C#N)c(C(F)(F)F)c2)C(=S)N1c1ccc(OCCN2CCN(CC(=O)Nc3cccc(NC4CCC(=O)NC4=O)c3)[C@H](C(F)(F)F)C2)c(C2CC2)c1 (stereo partly drawn) [Example 233, 2-((S)-4-(2-(4-(3-(6-cyano-5-(trifluoromethyl)pyridin-3-yl)-5,5-dimethyl-4-oxo-2-thioxoimidazolidin-1-yl)-2-cyclopropylphenoxy)ethyl)-2-(trifluoromethyl)piperazin-1-yl)-N-(3-(2,6-dioxopiperidin-3-ylamino)phenyl)acetamide] | * (0<Y<=25%) | < 100
